In patent US11008313B2, “Substituted 1-methyl-1,2,3,4-tetrahydroisoquinoline molecules as PCSK9 allosteric binders” (Merck Sharp & Dohme Corp., priority 2016, dated 2021):

How the values were obtained:
PCSK9 [1] = target: T1, PCSK9 (Homo sapiens, UniProt Q8NBP7); assay: Differential scanning calorimetry (DSC) assay, direct binding / thermal stabilization of PCSK9; conditions: Tm(with compound)−Tm(no compound); 2 μM PCSK9, 300 μM test compound
Method: Differential scanning calorimetry (DSC) was used as a biophysical method to confirm direct binding to PCSK9. A solution containing 2 μM PCSK9 with or without 300 μM test compound in 25 mM HEPES (pH 7.5)/150 mM NaCl/1 mM CaCl2/3.75% DMSO was transferred to the sample cell of the DSC instrument, while buffer alone was placed in the reference cell. Both cells were heated at a constant rate (200° C./hr) from 20-80° C. while recording the excess heat capacity of the sample cell relative to the reference cell. Each thermogram was analyzed to provide the melting temperature (Tm) of the protein.
The higher the temperature shift generally, the higher the affinity.

PCSK9 [2] = target: T1, PCSK9; assay: Fluorescence polarization competition binding assay (probe: compound of Example 57); conditions: 2 μM PCSK9, 50 nM compound of Example 57 as probe, overnight incubation; read-out: FP IC
Method: Relative compound affinities were determined using a competition binding assay with a fluorescence polarization format. Solution (49 μL) containing 2 μM PCSK9 and 50 nM compound of Example 57 in 20 mM HEPES (pH 7.5)/150 mM NaCl/1 mM CaCl2/0.005% P-20 was dispensed to wells of a 384-well black non-binding microplate before the addition of 1 μL of test compound or DMSO. After mixing, the plate was centrifuged and sealed for overnight incubation in the dark. The anisotropy signal was read using a fluorescence polarization protocol on a Perkin-Elmer Envision plate reader. The % inhibition was determined relative to the window defined by the DMSO control wells and wells containing 50 nM probe in the absence of PCSK9.

T1 sequence (Q8NBP7 153-692): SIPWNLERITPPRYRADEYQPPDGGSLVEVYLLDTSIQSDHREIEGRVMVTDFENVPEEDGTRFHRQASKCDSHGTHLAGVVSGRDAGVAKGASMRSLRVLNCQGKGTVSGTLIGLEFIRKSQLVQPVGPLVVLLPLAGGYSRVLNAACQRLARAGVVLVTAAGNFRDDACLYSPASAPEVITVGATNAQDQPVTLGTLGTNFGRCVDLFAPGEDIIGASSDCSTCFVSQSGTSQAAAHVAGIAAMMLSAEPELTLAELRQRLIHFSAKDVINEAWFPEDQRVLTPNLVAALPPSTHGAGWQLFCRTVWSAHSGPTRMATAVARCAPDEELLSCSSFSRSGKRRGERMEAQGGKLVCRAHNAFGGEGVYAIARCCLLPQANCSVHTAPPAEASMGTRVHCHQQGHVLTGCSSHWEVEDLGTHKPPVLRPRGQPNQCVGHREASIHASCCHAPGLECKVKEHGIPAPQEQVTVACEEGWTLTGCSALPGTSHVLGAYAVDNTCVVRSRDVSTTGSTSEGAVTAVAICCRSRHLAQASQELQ

SMILES	ΔTm at 300 µM (PCSK9 [1])	IC50 (PCSK9 [2])	DSC ΔTm (PCSK9 [1])
C[C@]1(CC(=O)Nc2nccs2)NCCc2cc(OCCOCCNC(=O)CCCC[C@@H]3SC[C@@H]4NC(=O)N[C@@H]43)c(Oc3ccc(C(=O)O)cc3)cc21 [Example 60, 4-(((R)-1-methyl-1-(2-oxo-2-(thiazol-2-ylamino)ethyl)-6-(2-(2-(5-((3aS,4S,6aR)-2-oxohexahydro-1H-thieno[3,4-d]imidazol-4-yl)pentanamido)ethoxy)ethoxy)-1,2,3,4-tetrahydroisoquinolin-7-yl)oxy)benzoic acid]	6.42 °C	–	–
Cn1nccc1NC(=O)c1ccc(Oc2cc3c(cc2OCC2CCCCO2)CCN[C@]3(C)CC(=O)Nc2nccs2)cc1F (single isomer, unassigned) [Example 77, 2-fluoro-4-(((R)-1-methyl-1-(2-oxo-2-(thiazol-2-ylamino)ethyl)-6-(((R or S)-tetrahydro-2H-pyran-2-yl)methoxy)-1,2,3,4-tetrahydroisoquinolin-7-yl)oxy)-N-(1-methyl-1H-pyrazol-5-yl)benzamide]	6.67 °C	591 nM	–
CC1=CC(C)=[N+]2C1=Cc1ccc(CCC(=O)NCCOCCOc3cc4c(cc3Oc3ccc(C(=O)O)c(F)c3)[C@@](C)(CC(=O)Nc3nccs3)NCC4)n1[B-]2(F)F [Example 57]	–	–	6.15 °C
Cn1nccc1NC(=O)c1ccc(Oc2cc3c(cc2OCC2CCCCO2)CCN[C@]3(C)CC(=O)Nc2nccs2)cc1F (stereo partly drawn) [Example 73, 2-fluoro-4-(((1R)-1-methyl-1-(2-oxo-2-(thiazol-2-ylamino)ethyl)-6-((tetrahydro-2H-pyran-2-yl)methoxy)-1,2,3,4-tetrahydroisoquinolin-7-yl)oxy)-N-(1-methyl-1H-pyrazol-5-yl)benzamide]	6.66 °C	632 nM	–
CC1(CC(=O)Nc2nccs2)NCCc2cc(OCC3CCCCO3)c(-c3ccc(F)c(C(=O)O)c3)cc21 (stereo not shown) [Example 110, 2-fluoro-5-(1-methyl-1-(2-oxo-2-(thiazol-2-ylamino)ethyl)-6-((tetrahydro-2H-pyran-2-yl)methoxy)-1,2,3,4-tetrahydroisoquinolin-7-yl)benzoic acid]	6.7 °C	0.98 nM	–
C[C@]1(CC(=O)Nc2nccs2)NCCc2cc(OCCn3cc(C4(C(=O)O)CC4)nn3)c(Oc3ccc(C(=O)O)c(F)c3)cc21 [Example 48, (R)-4-((6-(2-(4-(1-carboxycyclopropyl)-1H-1,2,3-triazol-1-yl)ethoxy)-1-methyl-1-(2-oxo-2-(thiazol-2-ylamino)ethyl)-1,2,3,4-tetrahydroisoquinolin-7-yl)oxy)-2-fluorobenzoic acid]	6.02 °C	678 nM	–
COC(=O)c1ccc(Oc2cc3c(cc2OCCOCCNC(=O)CCC2=[N+]4C(=Cc5c(C)cc(C)n5[B-]4(F)F)C=C2)CCN[C@]3(C)CC(=O)Nc2nccs2)cc1F [Example 61, methyl (R)-4-((6-(2-(2-(3-(5,5-difluoro-7,9-dimethyl-5H-4l4,5l4-dipyrrolo[1,2-c:2′,1′-f][1,3,2]diazaborinin-3-yl)propanamido)ethoxy)ethoxy)-1-methyl-1-(2-oxo-2-(thiazol-2-ylamino)ethyl)-1,2,3,4-tetrahydroisoquinolin-7-yl)oxy)-2-fluorobenzoate]	2.87 °C	–	–
Cc1ncsc1-c1ccc(CNC(=O)[C@@H]2C[C@@H](O)CN2C(=O)[C@@H](NC(=O)COCC(=O)NCCOCCOc2cc3c(cc2Oc2ccc(-c4ccc(C(=O)O)cc4)c(F)c2)[C@@](C)(CC(=O)Nc2nccs2)NCC3)C(C)(C)C)cc1 [Example 105, 2′-fluoro-4′-(((R)-6-(((S)-13-((2S,4R)-4-hydroxy-2-((4-(4-methylthiazol-5-yl)benzyl)carbamoyl)pyrrolidine-1-carbonyl)-14,14-dimethyl-7,11-dioxo-3,9-dioxa-6,12-diazapentadecyl)oxy)-1-methyl-1-(2-oxo-2-(thiazol-2-ylamino)ethyl)-1,2,3,4-tetrahydroisoquinolin-7-yl)oxy)-[1,1′-biphenyl]-4-carboxylic acid]	–	225 nM	–
C[C@]1(CC(=O)Nc2nccs2)NCCc2cc(OCCOCCOCCNC(=O)CCCC[C@@H]3SC[C@@H]4NC(=O)N[C@@H]43)c(Oc3ccc(C(=O)O)cc3)cc21 [Example 58, 4-(((R)-1-methyl-1-(2-oxo-2-(thiazol-2-ylamino)ethyl)-6-(2-(2-(2-(5-((3aS,4S,6aR)-2-oxohexahydro-1H-thieno[3,4-d]imidazol-4-yl)pentanamido)ethoxy)ethoxy)ethoxy)-1,2,3,4-tetrahydroisoquinolin-7-yl)oxy)benzoic acid]	5.88 °C	–	–
Cc1cc(C)n2c1C=C1C=CC(CCC(=O)NCCOCCOc3cc4c(cc3Oc3ccc(C(=O)O)cc3)[C@@](C)(CC(=O)Nc3nccs3)NCC4)=[N+]1[B-]2(F)F [Example 59, (R)-4-((6-(2-(2-(3-(5,5-difluoro-7,9-dimethyl-5H-4l4,5l4-dipyrrolo[1,2-c:2′,1′-f][1,3,2]diazaborinin-3-yl)propanamido)ethoxy)ethoxy)-1-methyl-1-(2-oxo-2-(thiazol-2-ylamino)ethyl)-1,2,3,4-tetrahydroisoquinolin-7-yl)oxy)benzoic acid]	5.15 °C	–	–

The next lines start with results.

ΔTm at 300 µM (PCSK9 [1])	IC50 (PCSK9 [2])	SMILES	DSC ΔTm (PCSK9 [1])
7.52 °C	211 nM	COc1cc2c(cc1Oc1ccc(-c3ccc(C(=O)O)cc3)c(F)c1)[C@@](C)(CC(=O)Nc1nccs1)NCC2 [Example 22, (R)-2′-fluoro-4′-((6-methoxy-1-methyl-1-(2-oxo-2-(thiazol-2-ylamino)ethyl)-1,2,3,4-tetrahydroisoquinolin-7-yl)oxy)-[1,1′-biphenyl]-4-carboxylic acid]	–
6.36 °C	645 nM	COC(=O)c1ccc(Oc2cc3c(cc2OCc2ncccn2)CCN[C@]3(C)CC(=O)Nc2nccs2)cc1F [Example 71, methyl (R)-2-fluoro-4-((1-methyl-1-(2-oxo-2-(thiazol-2-ylamino)ethyl)-6-(pyrimidin-2-ylmethoxy)-1,2,3,4-tetrahydroisoquinolin-7-yl)oxy)benzoate]	–
7.47 °C	721 nM	C[C@]1(CC(=O)Nc2nccs2)NCCc2cc(OCC3CCCO3)c(Oc3cccc(F)c3)cc21 (stereo partly drawn) [Example 82, 2-((1R)-7-(3-fluorophenoxy)-1-methyl-6-((tetrahydrofuran-2-yl)methoxy)-1,2,3,4-tetrahydroisoquinolin-1-yl)-N-(thiazol-2-yl)acetamide]	–
6.18 °C	532 nM	COc1cc2c(cc1Oc1ccc(-c3ccc(CCC(=O)O)cc3)c(F)c1)[C@@](C)(CC(=O)Nc1nccs1)NCC2 [Example 32, (R)-3-(2′-fluoro-4′-((6-methoxy-1-methyl-1-(2-oxo-2-(thiazol-2-ylamino)ethyl)-1,2,3,4-tetrahydroisoquinolin-7-yl)oxy)-[1,1′-biphenyl]-4-yl)propanoic acid]	–
5.78 °C	648 nM	COc1cc2c(cc1Oc1ccc3cnccc3c1)[C@@](C)(CC(=O)Nc1nccs1)NCC2 [Example 6, (R)-2-(7-(isoquinolin-6-yloxy)-6-methoxy-1-methyl-1,2,3,4-tetrahydroisoquinolin-1-yl)-N-(thiazol-2-yl)acetamide]	–
6.8 °C	–	COc1cc2c(cc1-c1ccc(F)c(C(=O)O)c1)[C@@](C)(CC(=O)Nc1nccs1)NCC2 [Example 112, (R)-2-fluoro-5-(6-methoxy-1-methyl-1-(2-oxo-2-(thiazol-2-ylamino)ethyl)-1,2,3,4-tetrahydroisoquinolin-7-yl)benzoic acid]	–
